Laboratory results as given in US20240280565A1, “EX VIVO HUMAN MODEL INTENDED FOR EVALUATING ALLERGIC OR PSEUDO-ALLERGIC INFLAMMATORY POTENTIAL” (GENOSKIN, priority 2021, published 2024).
Non-standard residues stand in square brackets, D forms with d. Residues, ends and D or L forms follow the SMILES beside them. dPhe(4-Cl) = N[C@H](Cc1ccc(Cl)cc1)C(=O)O; d2Nal = N[C@H](Cc1ccc2ccccc2c1)C(=O)O; dCit = NC(=O)NCCC[C@@H](N)C(=O)O; d3Pal = N[C@H](Cc1cccnc1)C(=O)O

Test system: skin explant
Assay: Inflammatory potential: cytokine assay in culture medium or matrix of injected skin explant
Assay type: cell-based, human
Settings: 100 μL CETROTIDE solution, cetrorelix 0.25 mg/l mL, injected into adipose tissue of explant
Protocol: A CETROTIDE solution of 100 μL with a cetrorelix concentration of 0.25 mg/l mL (luteinizing hormone inhibitor that competes by binding to its receptor) was injected into the adipose tissue of an explant, as described previously, using a syringe and a 12 mm long, 27 G needle. As a negative and positive control, 100 μL of a PBS solution and 100 μL of a concentrated solution of compound 48/80 (50 μg/mL, an MRGPRX2 agonist), respectively, were each injected into the adipose tissue of different explants, as described previously.
The culture medium or matrix supporting the explants are collected and an assay of cytokines is conducted using an ELISA-type methods or any other type of method intended to detect and quantify the presence of cytokines.

## CC(=O)N[C@H](Cc1ccc2ccccc2c1)C(=O)N[C@H](Cc1ccc(Cl)cc1)C(=O)N[C@H](Cc1cccnc1)C(=O)N[C@@H](CO)C(=O)N[C@@H](Cc1ccc(O)cc1)C(=O)N[C@H](CCCNC(N)=O)C(=O)N[C@@H](CC(C)C)C(=O)N[C@@H](CCCNC(=N)N)C(=O)N1CCC[C@H]1C(=O)N[C@H](C)C(N)=O [cetrorelix] (Ac-[d2Nal][dPhe(4-Cl)][d3Pal]SY[dCit]LRP[dA]-NH2)
  Inflammatory potential (cytokines): confirmed the inflammatory potential
